Target: T1, CBP BRD (Homo sapiens, UniProt Q92793)
T1 construct: made in house
Experiment: In vitro fluorescence polarization-based competition binding assay
Conditions: within series 4a-d
Experimental: FIG. 1A is a line drawing of the florescence polarization competition assay measuring the binding affinity of compounds 4a-d to the CBP BRD. FIG. 1B provides the IC50 values of compounds 4a-d and MS7972. Results are representative of three independent experiments and the error is SD.
Expression and purification of the recombinant CBP BRD in poly-his tag form was conducted using the procedure as previously described (Mujtaba, S. et al., Mol Cell 13, 251-63 (2004)). The purified protein was confirmed with mass spectroscopy. Binding assays were performed with CBP BRD (5 μM) and fluorescent probe (10 nM), and increasing concentration of unlabeled competing ligand.

T1 sequence (Q92793 1085-1192 limits assumed): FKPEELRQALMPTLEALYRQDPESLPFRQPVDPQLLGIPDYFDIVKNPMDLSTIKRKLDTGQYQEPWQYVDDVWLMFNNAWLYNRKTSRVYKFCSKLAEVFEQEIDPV

SMILES | binding affinity to CBP BRD, in words
CC(=O)NCCn1c2c(c3ccccc31)C(=O)NCC2 [4a, 2,3,4,5-tetrahydro-5-(2′-acetamidoethyl)-1H-pyrido-[4,3-b]indol-1-one] | lowest improvement of the series
CC(=O)NCCCCCCn1c2c(c3ccccc31)C(=O)NCC2 [4d, 2,3,4,5-tetrahydro-5-(6′-acetamidohexyl)-1H-pyrido-[4,3-b]indol-1-one] | partial or total loss of the affinity
